How the values were obtained:
[1] = target: histone deacetylase activity (HeLa nuclear extract); assay: HDAC fluorescent activity assay (Biomol, Fluor de Lys substrate); format: biochemical; details: IC50 range
Procedure: The ability of compounds to inhibit histone deacetylase activities was measured using the commercially available HDAC fluorescent activity assay from Biomol. In brief, the Fluor de Lys™ substrate, a lysine with an epsilon-amino acetylation, is incubated with the source of histone deacetylase activity (HeLa nuclear extract) in the presence or absence of inhibitor. Deacetylation of the substrate sensitises the substrate to Fluor de Lys™ developer, which generates a fluorophore.
Data are expressed as a percentage of the control, measured in the absence of inhibitor, with background signal being subtracted from all samples, as follows:— % activity=[(S^i−B)/(S^o−B)]×100 where S^i is the signal in the presence of substrate, enzyme and inhibitor, S^o is the signal in the presence of substrate, enzyme and the vehicle in which the inhibitor is dissolved, and B is the background signal measured in the absence of enzyme.
Histone deacetylase activity from crude nuclear extract derived from HeLa cells was used for screening. The preparation, purchased from 4C (Seneffe, Belgium), was prepared from HeLa cells harvested whilst in exponential growth phase. The nuclear extract is prepared according to Dignam JD1983 Nucl. Acid. […] The final buffer composition was 20 mM Hepes, 100 mM KCl, 0.2 mM EDTA, 0.5 mM DTT, 0.2 mM PMSF and 20% (v/v) glycerol.

HeLa cells = assay: HeLa cell inhibition assay (SRB cell viability); format: cell-based; details: Homo sapiens, HeLa, 72 h, IC50 range
Procedure: HeLa cells growing in log phase were harvested and seeded at 1000 cells/well (200 μl final volume) into 96-well tissue culture plates. Following 24 h of cell growth cells were treated with compounds (final concentration of 20 μM). Plates were then re-incubated for a further 72 h before a sulphorhodamine B (SRB) cell viability assay was conducted according to Skehan 1990 J Natl Canc Inst 82, 1107-1112.
(§1) Data were expressed as a percentage inhibition of the control, measured in the absence of inhibitor, as follows:— % inhibition=100−[(S^i/S^o)×100] where S^i is the signal in the presence of inhibitor and S^o is the signal in the presence of DMSO.
IC50 values were determined by non-linear regression analysis, after fitting the results of eight data points to the equation for sigmoidal dose response with variable slope (% activity against log concentration of compound), using Graphpad Prism software.
(§2) IC50 results were allocated to one of 3 ranges as follows: […]

U937 = U937 cell inhibition assay (WST-1 cell viability); format: cell-based; details: Homo sapiens, U-937; U937 cells, 72-96 h, WST-1 assay, IC50 range
Procedure: (§3) Cancer cell lines (U937 and HUT) growing in log phase were harvested and seeded at 1000-2000 cells/well (100 μl final volume) into 96-well tissue culture plates. Following 24 h of growth cells were treated with compound. Plates were then re-incubated for a further 72-96 h before a WST-1 cell viability assay was conducted according to the suppliers (Roche Applied Science) instructions.
as §1
(§4) Dose response curves were generated from 8 concentrations (top final concentration 10 μM, with 3-fold dilutions), using 6 replicates.
(§5) IC50 values were determined by non-linear regression analysis, after fitting the results to the equation for sigmoidal dose response with variable slope (% activity against log concentration of compound), using Graphpad Prism software.
as §2

HUT = HUT cell inhibition assay (WST-1 cell viability); format: cell-based; details: HUT cells, 72-96 h, WST-1 assay, IC50 range
Procedure: as §3, §1, §4, §5, §2

SMILES | IC50 [1] [nM] | IC50 (HeLa cells) [nM] | IC50 (U937) [nM] | IC50 (HUT) [nM]
O=C(NO)c1cnc(N2CC3C(C2)C3N2CCOCC2)nc1 (stereo not shown) [Example 62, N-Hydroxy 2-(6-morpholin-4-yl-3-azabicyclo[3.1.0]hex-3-yl)pyrimidine-5-carboxamide] | 101 to 1000 | > 3300 | > 3300 | 331 to 3300
COc1ccc(CN2CC3CN(c4ncc(C(=O)NO)cn4)CC3C2)cc1 (stereo not shown) [Example 84, N-Hydroxy 2-[5-(4-methoxybenzyl)hexahydropyrrolo[3,4-c]pyrrol-2(1H)-yl]pyrimidine-5-carboxamide] | < 100 | 331 to 3300 | 331 to 3300 | < 330
O=C(NO)c1cnc(N2CCC3(CC2)CCN(S(=O)(=O)c2ccc4ccccc4c2)CC3)nc1 [Example 86, N-Hydroxy 2-[9-(naphthalene-2-sulfonyl)-3,9-diaza-spiro[5.5]undec-3-yl]pyrimidine-5-carboxamide] | 101 to 1000 | > 3300 | 331 to 3300 | 331 to 3300
O=C(NO)c1cnc(N2CC3C(C2)C3NC(=O)c2cccs2)nc1 (stereo not shown) [Example 18, N-Hydroxy 2-{6-[(thien-2-ylcarbonyl)amino]-3-azabicyclo[3.1.0]hex-3-yl}pyrimidine-5-carboxamide] | < 100 | > 3300 | > 3300 | 331 to 3300
O=C(NO)c1cnc(N2CC3C(C2)C3N2Cc3ccccc3CC2=O)nc1 (stereo not shown) [Example 65, N-Hydroxy 2-[6-(3-oxo-3,4-dihydroisoquinolin-2(1H)-yl)-3-azabicyclo[3.1.0]hex-3-yl]pyrimidine-5-carboxamide] | < 100 | 331 to 3300 | 331 to 3300 | 331 to 3300
O=C(NO)c1cnc(N2CC3C(C2)C3Nc2ccc3ccccc3n2)nc1 (stereo not shown) [Example 67, N-Hydroxy 2-[6-(quinolin-2-ylamino)-3-azabicyclo[3.1.0]hex-3-yl]pyrimidine-5-carboxamide] | < 100 | 331 to 3300 | 331 to 3300 | < 330
O=C(CCCCCc1ccccc1)NC1C2CN(c3ncc(C(=O)NO)cn3)CC21 (stereo not shown) [Example 8, N-Hydroxy 2-[6-(6-phenylhexanoyl)amino-3-azabicyclo[3.1.0]hex-3-yl]-pyrimidine-5-carboxamide] | – | 331 to 3300 | 331 to 3300 | < 330
CN(C)CCN(C1C2CN(c3ncc(C(=O)NO)cn3)CC21)S(=O)(=O)c1ccc2ccccc2c1 (stereo not shown) [Example 52, N-Hydroxy 2-{6-[(2-dimethylaminoethyl)(naphthalene-2-sulfonyl)-amino]-3-azabicyclo[3.1.0]hex-3-yl}pyrimidine-5-carboxamide] | – | 331 to 3300 | 331 to 3300 | < 330
O=C(NO)c1cnc(N2CC3C(C2)C3NS(=O)(=O)c2cccs2)nc1 (stereo not shown) [Example 2, N-Hydroxy 2-{6-[(thien-2-ylsulfonyl)amino]-3-azabicyclo[3.1.0]hex-3-yl}pyrimidine-5-carboxamide] | – | > 3300 | > 3300 | > 3300
O=C(NO)c1cnc(N2CC3C(C2)C3NC(=O)c2ccc3sccc3c2)nc1 (stereo not shown) [Example 17, N-Hydroxy 2-{6-[(1-benzothien-5-ylcarbonyl)amino]-3-azabicyclo[3.1.0]hex-3-yl}pyrimidine-5-carboxamide] | – | 331 to 3300 | 331 to 3300 | < 330

Second part, led by results:

IC50 [1] [nM] | IC50 (HeLa cells) [nM] | IC50 (U937) [nM] | SMILES | IC50 (HUT) [nM]
< 100 | 331 to 3300 | < 330 | O=C(NO)c1cnc(N2CC3C(C2)C3NCc2ccc(OC(F)(F)F)cc2)nc1 (stereo not shown) [Example 34, N-Hydroxy 2-{6-[(4-trifluoromethoxybenzyl)amino]-3-azabicyclo[3.1.0]hex-3-yl}pyrimidine-5-carboxamide] | < 330
< 100 | < 330 | < 330 | O=C(NO)c1cnc(N2CC3C(C2)C3NCc2ccc3cc(F)ccc3n2)nc1 (stereo not shown) [Example 44, N-Hydroxy 2-(6-{[(6-fluoroquinolin-2-yl)methyl]amino}-3-azabicyclo[3.1.0]hex-3-yl)pyrimidine-5-carboxamide] | < 330
< 100 | 331 to 3300 | < 330 | N#Cc1ccc(CNC2C3CN(c4ncc(C(=O)NO)cn4)CC32)cc1 (stereo not shown) [Example 31, N-Hydroxy 2-{6-[(4-cyanobenzyl)amino]-3-azabicyclo[3.1.0]hex-3-yl}pyrimidine-5-carboxamide] | < 330
< 100 | < 330 | < 330 | O=C(NO)c1cnc(N2CC3C(C2)C3NCc2cccc(-c3ccccc3)c2)nc1 (stereo not shown) [Example 37, N-Hydroxy 2-{6-[(biphenyl-3-ylmethyl)-amino]-3-aza-bicyclo[3.1.0]hex-3-yl}pyrimidine-5-carboxamide] | < 330
– | 331 to 3300 | 331 to 3300 | O=C(NO)c1cnc(N2CC3C(C2)C3NC(=O)c2ccccc2)nc1 (stereo not shown) [Example 13, N-Hydroxy 2-[6-(benzoylamino)-3-azabicyclo[3.1.0]hex-3-yl]pyrimidine-5-carboxamide] | 331 to 3300
< 100 | – | < 330 | O=C(NO)c1cnc(N2CC3C(C2)C3NCc2ccc(Br)cc2)nc1 (stereo not shown) [Example 36, N-Hydroxy 2-{6-[(4-bromobenzyl)amino]-3-azabicyclo[3.1.0]hex-3-yl}pyrimidine-5-carboxamide] | < 330
< 100 | > 3300 | 331 to 3300 | O=C(NO)c1cnc(N2CC3CN(C(=O)CCCOc4ccccc4)CC3C2)nc1 (stereo not shown) [Example 78, N-Hydroxy 2-[5-(4-phenoxybutyryl)hexahydropyrrolo[3,4-c]pyrrol-2(1H)-yl]pyrimidine-5-carboxamide] | 331 to 3300
< 100 | < 330 | < 330 | O=C(NO)c1cnc(N2CC3C(C2)C3NCc2ccccc2)nc1 (stereo not shown) [Example 33, N-Hydroxy 2-[6-(benzylamino)-3-azabicyclo[3.1.0]hex-3-yl]pyrimidine-5-carboxamide] | < 330
< 100 | 331 to 3300 | 331 to 3300 | Cc1nccn1CCN(C1C2CN(c3ncc(C(=O)NO)cn3)CC21)S(=O)(=O)c1ccc2ccccc2c1 (stereo not shown) [Example 47, N-Hydroxy 2-{6-[[2-(2-methylimidazol-1-yl)ethyl](naphthalene-2-sulfonyl)amino]-3-azabicyclo[3.1.0]hex-3-yl}pyrimidine-5-carboxamide] | 331 to 3300
– | 331 to 3300 | < 330 | COc1ccc(CNC2C3CN(c4ncc(C(=O)NO)cn4)CC32)cc1 (stereo not shown) [Example 21, N-Hydroxy 2-{6-[(4-methoxybenzyl)amino]-3-azabicyclo[3.1.0]hex-3-yl}pyrimidine-5-carboxamide] | < 330
< 100 | – | < 330 | CN(C)CCCN(C1C2CN(c3ncc(C(=O)NO)cn3)CC21)S(=O)(=O)c1ccc2ccccc2c1 (stereo not shown) [Example 50, N-Hydroxy 2-{6-[(3-dimethylaminopropyl)(naphthalene-2-sulfonyl)amino]-3-azabicyclo[3.1.0]hex-3-yl}pyrimidine-5-carboxamide] | < 330
– | < 330 | < 330 | O=C(NO)c1cnc(N2CC3C(C2)C3NCC2CCCCC2)nc1 (stereo not shown) [Example 25, N-Hydroxy 2-{6-[(cyclohexylmethyl)amino]-3-azabicyclo[3.1.0]hex-3-yl}pyrimidine-5-carboxamide] | < 330

From US7932246B2, “Histone deacetylase inhibitors” (Chroma Therapeutics Ltd., priority 2005, dated 2011)
